Patent publication US20250368649A1, “TETRAHYDROPYRIDOPYRIMIDINE PAN-KRAS INHIBITORS” (Mirati Therapeutics, Inc., priority 2022, published 2025)

Assays:
[1] = tested on: PSN1 cells; assay: Inhibition of KRas-mediated phosphorylation of ERK (Cisbio HTRF pERK), PSN1 cells; format: cell-based; settings: Homo sapiens, PSN1, 3 h
Experimental: (§1) Inhibition of KRas Phosphorylation of ERK (HTRF) by Exemplary Compounds of Formula (I) Cisbio HTRF Advanced pERK Assay Catalog #64AERPEH • Cells: MKN1, PSN1 • Procedure: • Day 1: Seed 6,000 cells/well -25 µl/well in 384-well white solid bottom plate; RPM1_10% FBS.

[2] = tested on: HCT116 cells; assay: Inhibition of KRas-mediated phosphorylation of ERK (Cisbio HTRF pERK), HCT116 cells; format: cell-based; settings: Homo sapiens, HCT-116, 3 h, 3 hr compound incubation, Cisbio pERK HTRF
[3] = target: KRas G12V (Homo sapiens, UniProt P01116, G12V); assay: biochemical; settings: Binding to KRas (IC50 nM) G12V, TR-FRET displacement, KRas G12V
KRas G12V, sequence (P01116 1-169 isoform P01116-2 G12V): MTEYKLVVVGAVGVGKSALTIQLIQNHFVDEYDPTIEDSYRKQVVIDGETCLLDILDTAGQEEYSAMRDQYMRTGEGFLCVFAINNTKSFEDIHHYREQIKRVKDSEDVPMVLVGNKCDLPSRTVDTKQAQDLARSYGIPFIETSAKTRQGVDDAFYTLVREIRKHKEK

[4] = target: KRas G12R (Homo sapiens, UniProt P01116, G12R); assay: biochemical; settings: Binding to KRas (IC50 nM) G12R, TR-FRET displacement, KRas G12R
KRas G12R, sequence (P01116 1-169 isoform P01116-2 G12R): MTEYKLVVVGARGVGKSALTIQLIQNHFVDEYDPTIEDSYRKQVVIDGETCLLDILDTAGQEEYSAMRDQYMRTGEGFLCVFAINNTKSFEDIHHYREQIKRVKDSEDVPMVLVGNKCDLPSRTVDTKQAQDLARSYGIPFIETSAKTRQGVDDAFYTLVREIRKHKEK

[5] = tested on: A549 cells; assay: Inhibition of KRas-mediated phosphorylation of ERK (Cisbio HTRF pERK), A549 cells; format: cell-based; settings: Homo sapiens, A549, 3 h, 3 hr compound incubation, Cisbio pERK HTRF
[6] = tested on: ASPC1 cells; assay: Inhibition of KRas-mediated phosphorylation of ERK (Cisbio HTRF pERK), ASPC1 cells; format: cell-based; settings: Homo sapiens, ASPC1, 3 h, AsPC-1 cells, 3 hr compound incubation
[7] = tested on: H727 cells; assay: Inhibition of KRas-mediated phosphorylation of ERK (Cisbio HTRF pERK), H727 cells; format: cell-based; settings: Homo sapiens, NCI-H727, 3 h, 3 hr compound incubation
[8] = target: KRas G12D (Homo sapiens, UniProt P01116, G12D); assay: biochemical; settings: Binding to KRas (IC50 nM) G12D, TR-FRET displacement, KRas G12D
KRas G12D, sequence (P01116 1-169 isoform P01116-2 G12D): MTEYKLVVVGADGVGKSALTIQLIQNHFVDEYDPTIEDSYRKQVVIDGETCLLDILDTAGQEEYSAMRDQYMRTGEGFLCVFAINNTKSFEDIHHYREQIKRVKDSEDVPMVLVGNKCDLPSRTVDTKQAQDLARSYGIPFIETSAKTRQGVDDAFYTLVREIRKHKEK

[9] = tested on: MKN1 cells; assay: Inhibition of KRas-mediated phosphorylation of ERK (Cisbio HTRF pERK), MKN1 cells; format: cell-based; settings: Homo sapiens
Experimental: as §1

[10] = 3 hour compound incubation, Cisbio pERK HTRF
[11] = MKN-1, 3 hour compound incubation, Cisbio pERK HTRF

| SMILES | IC50 [1, 10] [nM] | IC50 [2] [nM] | IC50 [3] [nM] | IC50 [4] [nM] | IC50 [5] [nM] | IC50 ([6]; Cisbio pERK HTRF) [nM] | IC50 ([7]; Cisbio pERK HTRF) [nM] | IC50 [8] [nM] | IC50 [9, 11] [nM] | IC50 ([1]; 3 hr compound incubation) [nM] | IC50 [6] [nM] | IC50 [7] [nM] | IC50 ([9]; MKN-1, 3 hr compound incubation) [nM] |
| --- | --- | --- | --- | --- | --- | --- | --- | --- | --- | --- | --- | --- | --- |
| CCc1c(F)ccc2cc(O)cc(N3CCc4c(nc(OC[C@]56CCCN5[C@H](COC(=O)N(C)C)CC6)nc4N4CCC[C@@](C)(O)C4)C3)c12 [Example 435, ((3S,7aR)-7a-(((7-(8-ethyl-7-fluoro-3-hydroxynaphthalen-1-yl)-4-((R)-3-hydroxy-3-methylpiperidin-1-yl)-5,6,7,8-tetrahydropyrido[3,4-d]pyrimidin-2-yl)oxy)methyl)hexahydro-1H-pyrrolizin-3-yl)methyl dimethylcarbamate] | 4200 | 215 | 3 | 2 | 164 | 172 | 578 | 2 | 40 |  |  |  |  |
| CCc1c(F)ccc2cc(O)cc(N3CCc4c(nc(OC[C@@]56CCCN5C[C@H](F)C6)nc4N4CCCn5nc(N(C)C)cc5C4)C3)c12 [Example 405, 4-(4-(2-(dimethylamino)-7,8-dihydro-4H-pyrazolo[1,5-a][1,4]diazepin-5(6H)-yl)-2-(((2R,7aS)-2-fluorotetrahydro-1H-pyrrolizin-7a(5H)-yl)methoxy)-5,8-dihydropyrido[3,4-d]pyrimidin-7(6H)-yl)-5-ethyl-6-fluoronaphthalen-2-ol] | > 10000 |  | 9 | 3 | 273 | 339 | 308 | 5 | 99.9 |  |  |  |  |
| CCc1c(F)ccc2cc(O)cc(N3CCc4c(nc(OC[C@@]56CCCN5C[C@H](F)C6)nc4NCC4CC(=O)NC4=O)C3)c12 (stereo partly drawn) [Example 414, 3-(((7-(8-ethyl-7-fluoro-3-hydroxynaphthalen-1-yl)-2-(((2R,7aS)-2-fluorotetrahydro-1H-pyrrolizin-7a(5H)-yl)methoxy)-5,6,7,8-tetrahydropyrido[3,4-d]pyrimidin-4-yl)amino)methyl)pyrrolidine-2,5-dione] | 7540 |  | 3 | 11 |  | 3000 | 935 | 8 | 28.4 |  |  |  |  |
| CCc1c(F)ccc2cc(O)cc(N3CCc4c(nc(OC[C@@]56CCCN5C[C@H](F)C6)nc4NCC4CNS(=O)(=O)N4)C3)c12 (stereo partly drawn) [Example 410, 3-(((7-(8-ethyl-7-fluoro-3-hydroxynaphthalen-1-yl)-2-(((2R,7aS)-2-fluorohexahydro-1H-pyrrolizin-7a-yl)methoxy)-5,6,7,8-tetrahydropyrido[3,4-d]pyrimidin-4-yl)amino)methyl)-1,2,5-thiadiazolidine 1,1-dioxide] | > 10000 |  | 4 | 7 |  | > 10000 | 1670 | 18 | 217 |  |  |  |  |
| CCc1c(F)ccc2cc(O)cc(N3CCc4c(nc(OC[C@@]56CCCN5C[C@H](F)C6)nc4N4CCCCn5nc(N)cc5C4)C3)c12 [Example 590, 4-(4-(2-amino-6,7,8,9-tetrahydropyrazolo[1,5-a][1,4]diazocin-5(4H)-yl)-2-(((2R,7aS)-2-fluorotetrahydro-1H-pyrrolizin-7a(5H)-yl)methoxy)-5,8-dihydropyrido[3,4-d]pyrimidin-7(6H)-yl)-5-ethyl-6-fluoronaphthalen-2-ol] | 9600 |  | 2 | < 2 |  | 391 | 277 | 4 | 40.8 |  |  |  |  |
| CCc1c(F)ccc2cc(O)cc(N3CCc4c(nc(OC[C@@]56CCCN5C[C@H](F)C6)nc4N4Cc5cn(C(=O)N(C)C)nc5CC(C)(C)C4)C3)c12 [Example 424, 5-(7-(8-ethyl-7-fluoro-3-hydroxynaphthalen-1-yl)-2-(((2R,7aS)-2-fluorohexahydro-1H-pyrrolizin-7a-yl)methoxy)-5,6,7,8-tetrahydropyrido[3,4-d]pyrimidin-4-yl)-N,N,7,7-tetramethyl-5,6,7,8-tetrahydropyrazolo[4,3-c]azepine-2(4H)-carboxamide] | > 10000 |  | 5 | 9 | 698 | 926 | 460 | 31 | 148 |  |  |  |  |

Next, values leading:

| IC50 [1, 10] [nM] | IC50 [2] [nM] | IC50 [3] [nM] | IC50 [4] [nM] | IC50 [5] [nM] | IC50 ([6]; Cisbio pERK HTRF) [nM] | IC50 ([7]; Cisbio pERK HTRF) [nM] | IC50 [8] [nM] | IC50 [9, 11] [nM] | IC50 ([1]; 3 hr compound incubation) [nM] | IC50 [6] [nM] | IC50 [7] [nM] | IC50 ([9]; MKN-1, 3 hr compound incubation) [nM] | SMILES |
| --- | --- | --- | --- | --- | --- | --- | --- | --- | --- | --- | --- | --- | --- |
| 949 |  | < 2 | < 2 |  | 27 | 92 | 3 | 6 |  |  |  |  | O=S1(=O)CCC2(CCCN(c3nc(OC[C@@]45CCCN4C[C@H](F)C5)nc4c3CCN(c3cc(O)cc5cccc(Cl)c35)C4)C2)N1 (stereo partly drawn) [Example 513, 7-(7-(8-chloro-3-hydroxynaphthalen-1-yl)-2-(((2R,7aS)-2-fluorohexahydro-1H-pyrrolizin-7a-yl)methoxy)-5,6,7,8-tetrahydropyrido[3,4-d]pyrimidin-4-yl)-2-thia-1,7-diazaspiro[4.5]decane 2,2-dioxide] |
| > 10000 |  | 2 | < 2 |  | 1410 | 1100 | 6 | 158 |  |  |  |  | CCc1c(F)ccc2cc(O)cc(N3CCc4c(nc(OCC5(CN(C)C)CC5)nc4N4C[C@@H]5C[C@H](C4)[C@H](O)C5)C3)c12 [Example 431, (1R,5R,6R)-3-(2-((1-((dimethylamino)methyl)cyclopropyl)methoxy)-7-(8-ethyl-7-fluoro-3-hydroxynaphthalen-1-yl)-5,6,7,8-tetrahydropyrido[3,4-d]pyrimidin-4-yl)-3-azabicyclo[3.2.1]octan-6-ol] |
| 841 | 296 | < 2 | < 2 | 226 | 533 | 257 | < 2 | 37.2 |  |  |  |  | O=C1CC2(CCCN(c3nc(OC[C@@]45CCCN4C[C@H](F)C5)nc4c3CCN(c3cc(O)cc5ccc(F)c(Cl)c35)C4)C2)C(=O)N1 (stereo partly drawn) [Example 467, 7-(7-(8-chloro-7-fluoro-3-hydroxynaphthalen-1-yl)-2-(((2R,7aS)-2-fluorohexahydro-1H-pyrrolizin-7a-yl)methoxy)-5,6,7,8-tetrahydropyrido[3,4-d]pyrimidin-4-yl)-2,7-diazaspiro[4.5]decane-1,3-dione] |
| 4710 |  | < 2 | < 2 | 100 | 486 | 346 | 4 | 19.9 |  |  |  |  | CCc1c(F)ccc2cc(O)cc(N3CCc4c(nc(OC[C@@]56CCCN5C[C@H](F)C6)nc4N4C[C@H]5C[C@@H](C4)C(=O)NC5=O)C3)c12 [Example 416, (1R,5S)-7-(7-(8-ethyl-7-fluoro-3-hydroxynaphthalen-1-yl)-2-(((2R,7aS)-2-fluorohexahydro-1H-pyrrolizin-7a-yl)methoxy)-5,6,7,8-tetrahydropyrido[3,4-d]pyrimidin-4-yl)-3,7-diazabicyclo[3.3.1]nonane-2,4-dione] |
|  |  | < 2 | < 2 |  |  |  | < 2 |  | 6000 | 11 | 9 | 1.4 | CCc1c(F)ccc2cc(O)cc(N3CCc4c(nc(OC[C@@]56CCCN5C[C@H](F)C6)nc4N4CCCn5nc(C(=O)N(C6CC6)C6CC6)cc5C4)C3)c12 [Example 637, N,N-dicyclopropyl-5-(7-(8-ethyl-7-fluoro-3-hydroxynaphthalen-1-yl)-2-(((2R,7aS)-2-fluorotetrahydro-1H-pyrrolizin-7a(5H)-yl)methoxy)-5,6,7,8-tetrahydropyrido[3,4-d]pyrimidin-4-yl)-5,6,7,8-tetrahydro-4H-pyrazolo[1,5-a][1,4]diazepine-2-carboxamide] |
| 9630 | 3260 | < 2 | 3 | 322 | 377 | 275 | 5 | 449 |  |  |  |  | CCc1c(F)ccc2cc(O)cc(N3CCc4c(nc(OC[C@@]56CCCN5C[C@H](F)C6)nc4N4CCCC5(CSC5)C4)C3)c12 [Example 421, 5-ethyl-6-fluoro-4-(2-(((2R,7aS)-2-fluorohexahydro-1H-pyrrolizin-7a-yl)methoxy)-4-(2-thia-6-azaspiro[3.5]nonan-6-yl)-5,6-dihydropyrido[3,4-d]pyrimidin-7(8H)-yl)naphthalen-2-ol] |
| 3230 |  | < 2 | < 2 |  | 11 | 19 | < 2 | 10.7 |  |  |  |  | CCc1c(F)ccc2cc(O)cc(N3CCc4c(nc(OC[C@@]56CCCN5C[C@H](F)C6)nc4N4CCCn5nc(C(=O)N6CC7CN(C8COC8)CC7C6)cc5C4)C3)c12 (stereo partly shown) [Example 503] |
